ChEMBL document CHEMBL4627332, “Interruption of Vif/Elongin C interaction: In silico and experimental elucidation of the underlying molecular mechanism of benzimidazole-based APOBEC3G stabilizers” (Bioorg Med Chem, 2020)
The source made the active and inactive calls. The calls are words filed in the database; no cut-off is given here.

Assay: Inhibition of HIV1 Vif interaction with ElonginC (unknown origin) co-transfected in 293 T cells assessed as decrease in ElonginC precipitation at 20 uM measured after 1 hr in presence of ant-FLAG antibody by immunoblot analysis
Format: cell-based

In the case of `Cc1noc(C)c1CSc1nc2ccccc2n1-c1ccccc1`, the inhibition is reported as “Active”.
